Source: patent US20240327406A1, “POTASSIUM CHANNEL MODULATORS” (Autifony Therapeutics Limited, priority 2021, published 2024)

How the values were obtained:
[1] = Determination of blood and brain tissue binding (equilibrium dialysis); format: in vitro ADME, Sprague Dawley rat; details: Sprague Dawley, 5 h at 37° C.; for fraction unbound at 5 h, 5 micromolar: 1:2 (w/v) in artificial CSF, rat brain homogenate, read-out: % FU Brain; for fraction unbound at 5 h, 0.5 micromolar: whole blood diluted 1:1 (v/v) with isotonic phosphate buffer, rat whole blood, read-out: % FU Blood
Method: Sprague Dawley rat whole blood, collected on the week of the experiment using K3-EDTA as an anti-coagulant, is diluted with isotonic phosphate buffer 1:1 (v/v). Sprague Dawley rat whole brain, stored frozen at −20° C., is thawed and homogenised in artificial cerebrospinal fluid (CSF) 1:2 (w/v).
An appropriate amount of test compound is dissolved in DMSO to give a 10 millimolar solution. Further dilutions, to obtain a 166.7 micromolar working solution are then prepared using 50% acetonitrile in MilliQ water. This working solution is used to spike the blood to obtain a final concentration of 0.5 micromolar in whole blood. Similarly, the working solution is used to spike brain samples to obtain a final concentration of 5 micromolar in whole brain. From these spiked blood and brain preparations, control samples (n=3), are immediately extracted and used to calculate the initial recovery of the test items.
150 microL of compound-free buffer (isotonic phosphate buffer for blood or artificial CSF buffer for brain) is dispensed in one half-well and 150 microL of spiked matrix (blood or brain) is loaded in the other half-well, with the two halves separated by a semi-permeable membrane. After an equilibration period of 5 h at 37° C., 50 microL of dialysed matrix (blood or brain) is added to 50 microL of corresponding compound-free buffer, and vice-versa for buffer, such that the volume of buffer to matrix (blood or brain) remains the same. Samples are then extracted by protein precipitation with 300 microL of acetonitrile containing rolipram (control for positive ionization mode) or diclofenac (control for negative ionization mode) as internal standards and centrifuged for 10 min at 3000 rpm. Supernatants are collected (100 microL), diluted with 27% AcN in MilliQ water (200 microL) and then injected into an HPLC-MS/MS or UPLC-MS/MS system to determine the concentration of test compound present.
Blood and brain tissue binding are then determined using the following formulas:
where Afu=apparent fraction unbound; Buffer=analyte/internal standard ratio determined in the buffer compartment; Blood=analyte/internal standard ratio determined in the blood compartment; Brain=analyte/internal standard ratio determined in the brain compartment.
where: fucr=Fraction unbound corrected; D=matrix dilution factor (D=2 for blood and D=3 for brain). then: […]

[2] = In vitro metabolic stability, human liver microsomes; format: in vitro ADME; details: CLint expressed as mL/min/g liver
Method: The objective of this study was to determine metabolic stability of test items in rat and human liver microsomes. Verapamil and dextromethorphan were used as positive controls for microsomal incubation.
Incubation medium was prepared by combining 11.2 mL of potassium phosphate monobasic and 38.8 mL of potassium phosphate dibasic, diluted to 1 L with water. Cryopreserved microsomes were thawed and kept on ice until use. Microsomes were then diluted in incubation to a protein concentration of 0.56 mg/mL. […]
NADPH regenerating system solution was prepared by dissolving 1.7 mg of NADP, 7.8 mg of G6P and 6 units of G6P-Dehydrogenase in 1 mL of 2% sodium bicarbonate solution (prepared by dissolving 20 g of NaHCO3 in 1 L of water).
Test compounds were separately dissolved in DMF to obtain 10 mM stock solutions that were further diluted in water/acetonitrile 50/50 (v/v) to obtain the corresponding 50 μM working solutions. Verapamil and dextromethorphan were dissolved in DMF in order to obtain a 10 mM verapamil solution and 10 mM dextromethorphan solution. These solutions were then diluted in the incubation medium in order to obtain a 50 μM verapamil working solution and a 50 μM dextromethorphan working solution.
800 μL-aliquots of NADPH regenerating system were pre-warmed at 37° C. for 5 minutes. 5 μL of 50 µM test compounds, verapamil or dextromethorphan were added to 445 μL of the 0.56 mg/mL microsomes solution and the incubation mixture was pre-warmed in a 96 deep well 2 mL plate (incubation plate) at 37° C. for 5 minutes. The incubation reactions were initiated by adding 50 μL of pre-warmed NADPH regenerating system to the incubation mixtures. 50 μL aliquots were taken from incubation mixtures at: 0, 3, 6, 9, 15, and 30 minutes and the reactions were stopped by adding 100 μL of aceronitrile with the corresponding internal standard. Samples were then diluted with 120 μL of water (final organic solvent percentage at 37%) and centrifuged at 3000 rpm for 10 minutes, prior the LC-MS/MS analysis.
Metabolic stability was calculated from the peak area ratio of the remaining test compound with internal standard versus time. The intrinsic clearance (CLint) was determined from the first order elimination constant k (min^−1) (obtained from GraphPad by plotting the natural logarithm of the peak area ratio of the remaining test item with internal standard versus time), using the actual volume of the incubation V (mL), the amount of hepatocytes in the incubation M (million cells) and the hepatocellularity number per a liver Hn (120 for human).

[3] = Determination of in vivo pharmacokinetic parameters (blood and brain concentrations); details: male, rat
Method: Adult male rats (Charles River, Italy) are dosed with test compound orally at 1 mg/kg (5 ml/kg, in 5% v/v DMSO, 0.5% w/v HPMC in water) and intravenously at 0.5 mg/kg (2 ml/kg, in 5% v/v DMSO 40% w/v PEG400 in saline). After oral administration, blood samples are collected under deep Isofluorane anesthesia from the portal vein and heart of each rat (1 rat per time point). After intravenous administration, serial blood samples are collected from the lateral tail vein of each rat. Blood and brain samples are collected at a single timepoint of 0.5 h after dose administration for these animals. In all cases, blood samples are collected into potassium EDTA tubes.
A further group of rats (n=1 per test compound) receive a single intravenous administration of the PgP transport inhibitor, Elacridar (3 mg/kg) shortly before the oral administration of the test compound at 1 mg/kg, as above.
Blood and brain samples can be assayed for test compound concentration using a method based on protein precipitation with acetonitrile followed by HPLC/MS-MS analysis with an optimized analytical method.
The concentrations of test compound in blood (expressed as ng/ml) and brain (expressed as ng/g) at the different time points following either oral or intravenous dosing are analysed using a non-compartmental pharmacokinetic model using WinNonLin Professional version 4.1. The following parameters are derived:
Intravenous dosing: Maximum concentration over time (Cmax), integrated concentration over time (AUC), clearance (Clb), volume of distribution (Vss), half-life (t1/2) and Brain/Heart Blood conc @0.5 hr.
Oral dosing: Cmax, time of maximum concentration (Tmax), AUC, bioavailability (F %), fraction absorbed (Fa %), blood to brain ratio (AUC B/B), and Fold-change in AUC B/B in the presence of Elacridar.

Work on `Cc1ccc(Oc2ccc(-n3c(=O)[nH]c4cccnc43)cn2)cc1OC(F)(F)F` [Example 4, 3-[6-[4-methyl-3-(trifluoromethoxy)phenoxy]-3-pyridyl]-1H-imidazo[4,5-b]pyridin-2-one] yielded a fraction unbound at 5 h, 5 micromolar [1] of 0.003, a fraction unbound at 5 h, 0.5 micromolar [1] of 0.002 and a Cli human [2] of 0.7 mL/min/g.

`O=c1[nH]c2cccnc2n1-c1cnc(Oc2cccc(OC(F)(F)F)c2)nc1` [Example 17, 3-[2-[3-(trifluoromethoxy)phenoxy]pyrimidin-5-yl]-1H-imidazo[4,5-b]pyridin-2-one] showed a Kp ([3]; brain and blood, oral dosing 1 mg/kg, read-out: AUC B/B (brain/blood) ratio) of 0.45, a Kp at 0.5 h ([3]; brain and heart blood, intravenous, 0.5 mg/kg, 0.5 h after dose administration, read-out: Brain/Heart Blood conc @0.5 hr) of 0.76 and a fraction unbound at 5 h, 5 micromolar [1] of 0.016. It also gave a fraction unbound at 5 h, 0.5 micromolar [1] of 0.016 and a Cli human [2] of less than 0.5 mL/min/g.

For `Cc1ccc(Oc2ncc(-n3c(=O)[nH]c4cccnc43)cn2)cc1OC(F)(F)F` [Example 32, 3-[2-[4-methyl-3-(trifluoromethoxy)phenoxy]pyrimidin-5-yl]-1H-imidazo[4,5-b]pyridin-2-one], the fraction unbound at 5 h, 5 micromolar [1] was 0.006, the fraction unbound at 5 h, 0.5 micromolar [1] was 0.01 and the Cli human [2] was 0.8 mL/min/g.
